Tests used:
[1] = test system: ANGPTL4, a PPARG target gene, in HT1197 (RXRA S427F mutation) cells; assay: Bladder cancer pharmacodynamic assay, HT1197 cell assay (qPCR of ANGPTL4); type: cell-based; conditions: Homo sapiens, 24 hours, 100 nM compound, relative to DMSO control
Experimental: Bladder Cancer Pharmacodynamic Assay
5637 (PPARG amplified) and HT1197 (RXRA S427F mutation) cells were used for assessment of modulation of PPARG target genes using quantitative PCR. Cells were treated for 24 hours with PPARG inverse agonists prior to analysis of FABP4 (IDT, Cat: Hs.PT 58.20106818) and ANGPTL4 (IDT, Cat: Hs.PT 58.25480012) expression, with expression of the housekeeping gene TBP (IDT, Cat: Hs.PT 58v.39858774) used to normalize expression across samples. Quantitative PCR was performed using an ABI QuantStudio 7 Flex Reaction system. Data were analyzed and reported relative to DMSO control using the comparative Ct method (ΔΔCt).

[2] = biological target: T1, PPARG/RXRA LBD heterodimer (Homo sapiens, UniProt P37231); assay: PPARγ-MED1 blockade assay (TR-FRET, biotinylated MED1 LxxLL peptide); type: biochemical; conditions: WT PPARG LBD/WT RXRA LBD, 80 nM Rosiglitazone, 3 hours
T1 construct: His-TEV-Q203-Y477; Uniprot ID P37231-2; made in house; host or cells: E. coli
T1 sequence (P37231 203-477 isoform P37231-2): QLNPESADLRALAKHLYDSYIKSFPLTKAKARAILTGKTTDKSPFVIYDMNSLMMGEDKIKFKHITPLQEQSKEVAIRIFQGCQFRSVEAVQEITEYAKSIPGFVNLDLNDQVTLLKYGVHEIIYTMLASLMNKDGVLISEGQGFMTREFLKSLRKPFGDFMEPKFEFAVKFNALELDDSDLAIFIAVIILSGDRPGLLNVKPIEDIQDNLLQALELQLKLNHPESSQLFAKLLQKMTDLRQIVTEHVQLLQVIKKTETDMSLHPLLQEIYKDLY
T1 sequence (P19793 228-462 partner limits assumed): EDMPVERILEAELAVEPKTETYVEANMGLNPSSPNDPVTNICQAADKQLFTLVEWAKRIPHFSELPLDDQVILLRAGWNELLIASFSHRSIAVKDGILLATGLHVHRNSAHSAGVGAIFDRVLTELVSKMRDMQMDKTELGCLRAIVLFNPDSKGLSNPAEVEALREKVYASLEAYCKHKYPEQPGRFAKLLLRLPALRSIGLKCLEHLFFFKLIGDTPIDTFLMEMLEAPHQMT
Experimental: PPARγ-MED1 Blockade Assay:
Compound potency (IC50) and maximal extent of MED1 repulsion to PPARG were assessed a TR-FRET binding assay measuring association of a biotinylated MED1 LxxLL peptide (Biotin-[…]-amide) to PPARG/RXRA LBD heterodimer. Specifically, a 20 microliters of TR-FRET master mix consisting of 2 nM WT PPARG LBD (E. coli expressed, His-TEV-Q203-Y477; Uniprot ID P37231-2), 2 nM WT RXRA LBD (E. coli expressed, Flag-TEV-E228-T462; […]. Mixtures were incubated for 3 hours and read in an EnVision plate reader (Perkin Elmer) with Ex/Em 615/665. To determine the potency (IC50) and extent of MED1 repulsion, TR-FRET ratios were normalized to the average ratio of DMSO control wells (0%) and to the average minimum ratio for positive control compound (GW9662 (2-chloro-5-nitrobenzanilide); defined as 100%) in CDD Vault and analyzed using the Levenberg-Marquardt algorithm.

[3] = biological target: T2, PPARG/RXRA LBD heterodimer (Homo sapiens, UniProt P37231); assay: PPARγ-NCOR1 recruitment assay (TR-FRET, biotinylated NCOR1 ID2 peptide); type: biochemical; conditions: 80 nM Rosiglitazone, 3 hours, read-out: PPARG-NCOR recruitment assay EC50
T2 construct: His-TEV-Q203-Y477; Uniprot ID P37231-2; made in house; host or cells: E. coli
Experimental: PPARγ-NCOR1 Recruitment Assay:
Compound potency (EC50) and maximal extent of NCOR1 recruitment to PPARG were assessed a TR-FRET binding assay measuring association of a biotinylated NCOR1 ID2 peptide (Biotin-[…]-amide) to PPARG/RXRA LBD heterodimer. Specifically, a 20 microliters of TR-FRET master mix consisting of 2 nM WT PPARG LBD (E. coli expressed, His-TEV-Q203-Y477; Uniprot ID P37231-2), 2 nM WT RXRA LBD or mutant S427F RXRA LBD (E. coli expressed, Flag-TEV-E228-T462; […]. Mixtures were incubated for 3 hours and read in an EnVision plate reader (Perkin Elmer) with Ex/Em 615/665. To determine the potency (EC50) and extent of NCOR1 recruitment, TR-FRET ratios were normalized to the average ratio of DMSO control wells (0%) and to the average maximum ratio for positive control compound (T0070907 (2-chloro-5-nitro-N-4-pyridinyl-benzamide); defined as 100%) in CDD Vault and analyzed using the Levenberg-Marquardt algorithm.
T2 sequence (O75376 2251-2273 partner, one chain of several): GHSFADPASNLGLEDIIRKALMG

Row | SMILES | EC50 [2] [nM] | EC50 [3] [nM] | inhibition at 0.1 µM [1] [%]
1 | COc1cc(F)c2c(=O)cc(-c3cc(C#N)ccc3Cl)[nH]c2c1 [Example 22, 4-chloro-3-(5-fluoro-7-methoxy-4-oxo-1,4-dihydroquinolin-2-yl)benzonitrile] | 100 to 1000 | 100 to 1000 | 29
2 | N#Cc1ccc(Cl)c(-c2cc(=O)c3c(F)c(-c4c[nH]c(C(F)(F)F)n4)c(F)cc3[nH]2)c1 [Example 67, 4-chloro-3-(5,7-difluoro-4-oxo-6-(2-(trifluoromethyl)-1H-imidazol-4-yl)-1,4-dihydroquinolin-2-yl)benzonitrile] | 10 to 100 | 10 to 100 | 22
3 | Cc1c(F)cc(F)c2c(=O)cc(-c3cc(C#N)ccc3Cl)[nH]c12 [Example 28, 4-chloro-3-(5,7-difluoro-8-methyl-4-oxo-1,4-dihydroquinolin-2-yl)benzonitrile] | 100 to 1000 | > 10000 | 0
4 | CN1CCN(c2c(F)cc3[nH]c(-c4cc(C#N)ccc4Cl)cc(=O)c3c2F)CC1 [Example 19, 4-chloro-3-(5,7-difluoro-6-(4-methylpiperazin-1-yl)-4-oxo-1,4-dihydroquinolin-2-yl)benzonitrile] | 1000 to 10000 | 1000 to 10000 | 75
5 | CNC(=O)Cc1ccc(-c2c(F)cc3[nH]c(-c4cc(C#N)ccc4Cl)cc(=O)c3c2F)cc1 [Example 80, 2-(4-(2-(2-chloro-5-cyanophenyl)-5,7-difluoro-4-oxo-1,4-dihydroquinolin-6-yl)phenyl)-N-methylacetamide] | 100 to 1000 | 100 to 1000 | 47
6 | N#Cc1ccc(Cl)c(-c2cc(=O)c3c(F)c(-c4ccc(C(F)(F)F)cn4)c(F)cc3[nH]2)c1 [Example 55, 4-chloro-3-(5,7-difluoro-4-oxo-6-(5-(trifluoromethyl)pyridin-2-yl)-1,4-dihydroquinolin-2-yl)benzonitrile] | 100 to 1000 | 100 to 1000 | 65
7 | CN(C)C(=O)CCc1c(F)cc2[nH]c(-c3cc(C#N)ccc3Cl)cc(=O)c2c1F [Example 84, 3-(2-(2-chloro-5-cyanophenyl)-5,7-difluoro-4-oxo-1,4-dihydroquinolin-6-yl)-N,N-dimethylpropanamide] | 1000 to 10000 | 1000 to 10000 | 67
8 | N#Cc1ccc(Cl)c(-c2cc(=O)c3c(F)c(C(F)(F)F)c(F)cc3[nH]2)c1 [Example 32, 4-chloro-3-(5,7-difluoro-4-oxo-6-(trifluoromethyl)-1,4-dihydroquinolin-2-yl)benzonitrile] | 100 to 1000 | 100 to 1000 | 31
9 | CS(=O)(=O)c1ccc(-c2c(F)cc3[nH]c(-c4cc(C#N)ccc4Cl)cc(=O)c3c2F)cc1 [Example 39, 4-chloro-3-(5,7-difluoro-6-(4-(methylsulfonyl)phenyl)-4-oxo-1,4-dihydroquinolin-2-yl)benzonitrile] | 100 to 1000 | 100 to 1000 | 33
10 | N#Cc1ccc(Cl)c(-c2cc(=O)c3c(F)c(-c4cnc(C(F)(F)F)nc4)c(F)cc3[nH]2)c1 [Example 50, 4-chloro-3-(5,7-difluoro-4-oxo-6-(2-(trifluoromethyl)pyrimidin-5-yl)-1,4-dihydroquinolin-2-yl)benzonitrile] | 100 to 1000 | 100 to 1000 | 80
11 | N#Cc1ccc(Cl)c(-c2cc(=O)c3c(F)c(N4CCN(CC(F)(F)F)CC4)c(F)cc3[nH]2)c1 [Example 20, 4-chloro-3-(5,7-difluoro-4-oxo-6-(4-(2,2,2-trifluoroethyl)piperazin-1-yl)-1,4-dihydroquinolin-2-yl)benzonitrile] | 100 to 1000 | 100 to 1000 | 91
12 | Cc1c(F)cc2[nH]c(-c3cc(C#N)ccc3Cl)cc(=O)c2c1F [Example 15, 4-chloro-3-(5,7-difluoro-6-methyl-4-oxo-1,4-dihydroquinolin-2-yl)benzonitrile] | 10 to 100 | 100 to 1000 | 89
13 | N#Cc1ccc(Cl)c(-c2cc(=O)c3c(F)c(CCC(=O)O)c(F)cc3[nH]2)c1 [Example 77, 3-(2-(2-chloro-5-cyanophenyl)-5,7-difluoro-4-oxo-1,4-dihydroquinolin-6-yl)propanoic acid] | 1000 to 10000 | 1000 to 10000 | 44

Further lines, with some results ahead:

Row | EC50 [2] [nM] | EC50 [3] [nM] | SMILES | inhibition at 0.1 µM [1] [%]
14 | 1000 to 10000 | 1000 to 10000 | CN(C)C(=O)N1CCN(c2c(F)cc3[nH]c(-c4cc(C#N)ccc4Cl)cc(=O)c3c2F)CC1 [Example 113, 4-(2-(2-chloro-5-cyanophenyl)-5,7-difluoro-4-oxo-1,4-dihydroquinolin-6-yl)-N,N-dimethylpiperazine-1-carboxamide] | 80
15 | 1000 to 10000 | 1000 to 10000 | N#Cc1ccc(Cl)c(-c2cc(=O)c3c(F)c(N4CCS(=O)(=O)CC4)c(F)cc3[nH]2)c1 [Example 110, 4-chloro-3-(6-(1,1-dioxidothiomorpholino)-5,7-difluoro-4-oxo-1,4-dihydroquinolin-2-yl)benzonitrile] | 37
16 | > 10000 | 1000 to 10000 | CN(C)C(=O)c1cc(-c2c(F)cc3[nH]c(-c4cc(C#N)ccc4Cl)cc(=O)c3c2F)ccn1 [Example 88, 4-(2-(2-chloro-5-cyanophenyl)-5,7-difluoro-4-oxo-1,4-dihydroquinolin-6-yl)-N,N-dimethylpicolinamide] | 41
17 | 100 to 1000 | 100 to 1000 | CN(C)C(=O)c1cc(-c2c(F)cc3[nH]c(-c4cc(C#N)ccc4Cl)cc(=O)c3c2F)cc(F)c1F [Example 86, 5-(2-(2-chloro-5-cyanophenyl)-5,7-difluoro-4-oxo-1,4-dihydroquinolin-6-yl)-2,3-difluoro-N,N-dimethylbenzamide] | 75
18 | 1000 to 10000 | 1000 to 10000 | CN(C)C(=O)C1CN(c2c(F)cc3[nH]c(-c4cc(C#N)ccc4Cl)cc(=O)c3c2F)C1 [Example 102, 1-(2-(2-chloro-5-cyanophenyl)-5,7-difluoro-4-oxo-1,4-dihydroquinolin-6-yl)-N,N-dimethylazetidine-3-carboxamide] | 81
19 | 1000 to 10000 | 1000 to 10000 | COC1CN(c2c(F)cc3[nH]c(-c4cc(C#N)ccc4Cl)cc(=O)c3c2F)C1 [Example 103, 4-chloro-3-(5,7-difluoro-6-(3-methoxyazetidin-1-yl)-4-oxo-1,4-dihydroquinolin-2-yl)benzonitrile] | 82
20 | 1000 to 10000 | 1000 to 10000 | CN(C)C(=O)c1cccc(-c2c(F)cc3[nH]c(-c4cc(C#N)ccc4Cl)cc(=O)c3c2F)n1 [Example 85, 6-(2-(2-chloro-5-cyanophenyl)-5,7-difluoro-4-oxo-1,4-dihydroquinolin-6-yl)-N,N-dimethylpicolinamide] | 59

Reference: patent US20240166624A1, “PPARG INVERSE AGONISTS AND USES THEREOF” (Flare Therapeutics Inc., priority 2021, published 2024)
